Consider five compounds from US4970228A, “Novel aminoalkyl-substituted heterocyclic sulfur compounds” (Merrell Dow Pharmaceuticals, priority 1989, dated 1990).

The target in assay [1] is T1, dopamine-β-hydroxylase (DBH) (Bos taurus, UniProt P15101).
T1 sequence (P15101 1-610): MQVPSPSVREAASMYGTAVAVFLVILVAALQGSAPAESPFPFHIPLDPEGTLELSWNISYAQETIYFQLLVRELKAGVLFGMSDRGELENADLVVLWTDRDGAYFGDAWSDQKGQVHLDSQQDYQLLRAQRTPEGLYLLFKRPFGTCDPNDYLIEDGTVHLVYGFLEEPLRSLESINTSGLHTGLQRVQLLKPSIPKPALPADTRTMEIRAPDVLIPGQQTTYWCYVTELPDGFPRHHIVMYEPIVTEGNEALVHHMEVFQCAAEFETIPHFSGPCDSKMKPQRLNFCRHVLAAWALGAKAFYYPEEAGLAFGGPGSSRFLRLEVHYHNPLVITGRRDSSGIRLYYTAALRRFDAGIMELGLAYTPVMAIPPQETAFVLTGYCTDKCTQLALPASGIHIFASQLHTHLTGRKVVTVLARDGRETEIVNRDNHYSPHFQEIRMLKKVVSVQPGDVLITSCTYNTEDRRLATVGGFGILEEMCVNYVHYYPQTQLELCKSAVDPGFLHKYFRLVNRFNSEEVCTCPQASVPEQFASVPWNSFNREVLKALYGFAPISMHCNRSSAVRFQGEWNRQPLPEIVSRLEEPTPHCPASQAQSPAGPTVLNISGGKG
Put plainly: Time-dependent DBH inhibitory activity in vitro (oxygen uptake, tyramine as substrate). It is filed as biochemical. As to the method: Since DBH is a major enzyme in the synthetic pathway of norepinephrine (NE), the presence of a DBH inhibitor would act to decrease the amount of NE produced, and thereby have an antihypertensive effect. The DBH inhibitory properties of the compounds of this invention can readily be determined by standard and well-known procedures. […] The test compound is added at the desired concentration, and the system is incubated. Aliquots are taken at different time intervals and DBH activity is measured using tyramine as the substrate. The reaction is followed by measuring oxygen uptake using a polarographic electrode and an oxygen monitor by the method of S. May, et al., J. Biol. Chem., 256, 2258 (1981).
t 1/2: time required for 50% log activity remaining

Assay [2] has as its system spontaneously hypertensive rats. In words: Antihypertensive activity in vivo: continuous recording of arterial blood pressure in unanesthetized spontaneously hypertensive rats. To be noted: for % Lowering MBP / Max Change MBP: dosed as tosylate salt, MBP = mean blood pressure. Details: Max Change MBP: unit not given here. Here is the method: The ability of the compounds of this invention to lower blood pressure can be determined in vivo by using standard and well-known procedures such as those employed in the continuous recording of arterial blood pressure in conscious animals. For instance, test compounds are administered intraperitoneally (ip) to unanesthetized, spontaneously hypertensive rats and the arterial blood pressure is monitored continuously. In tests utilizing the above described procedure, the antihypertensive effects of the test compounds are readily apparent as indicated by the degree of lowering of mean blood pressure (MBP) noted in Table II.
*Dose was administered as mg/kg tosylate salt.

The target of assay [3] is T1, dopamine-β-hydroxylase (DBH). Put plainly: DBH inhibition kinetics: conversion of tyramine to octopamine, HPLC with fluorometric quantitation. In kind it is biochemical. An excerpt: The DBH inhibitory properties of the compounds of this invention can also readily be determined in vitro by standard and well known procedures for assaying the conversion of tyramine to octopamine in the presence of DBH, such as the procedure set forth by Feilchenfeld, N. B., Richter, H. W. and Waddell, W. H. in "Time-Resolved Assay of Dopamine Beta Hydroxylase Activity Utilizing High-Pressure Liquid Chromatography", Analyt. Biochem., 122, 124-128 (1982). Determination of the kinetics of DBH inhibition is exemplified by a procedure where the enzyme-assisted conversion of tyramine to octopamine is determined by incubating varying concentrations of test compound with constant concentrations of substrate, enzyme (DBH), molecular oxygen, an electron donor such as ascorbate and the necessary cofactors for the enzyme at optimal temperature and pH. After incubation, the product is separated out by high-performance liquid chromatography and quantitated fluorometrically, from which an inhibition constant (ki) can readily be calculated.

`NC/C=C1/CCCS1` [(Z)-2-(Dihydro-2(3H)-thienylidene)ethanamine]: the “Activity in the time-dependent DBH inhibition assay (in words)” value in assay [1] is “not active”. In assay [2] (100 mg/kg ip), the “% Lowering MBP” value was determined as 28.6% and the “Max Change MBP” value was -54 +/-21. In assay [2] (ip, spontaneously hypertensive rats), the “In vivo antihypertensive activity (in words)” value is “active as an in vivo antihypertensive agent”.
As for `NC/C=C1\CCCS1` [Compound 4 (Table I), (E)-2-(dihydro-2(3H)-thienylidene)ethanamine], in assay [2] (100 mg/kg ip), the “% Lowering MBP” value is given as 30.0% and the “Max Change MBP” value is given as -55 +/-22.
Consider `NCC=C1SCCS1` [Compound 1 (Table I), 2-(1,3-dithiolan-2-ylidene)ethanamine], for which the “Activity in the time-dependent DBH inhibition assay (in words)” value in assay [1] is given as “most active compound of the compounds tested”. Besides, in assay [2] (200 mg/kg ip), the “% Lowering MBP” value is listed as 21.7% and the “Max Change MBP” value is -39 +/-13.
Turning to `NCCC1SCCS1` [1,3-Dithiolane-2-ethanamine], in assay [3] (judged from ki), the “DBH inhibitory activity (in words)” value is recorded as “potent activity as a DBH inhibitor”. Further, the Ki in assay [3] (tyramine to octopamine conversion, read-out: ki (inhibition constant), DBH) was 11 µM.
`CC(N)C=C1SCCS1` (stereo not shown) [Compound 3 (Table I), 1-(1,3-dithiolan-2-ylidene)-2-propanamine]: in assay [2] (200 mg/kg ip), the “% Lowering MBP” value is recorded as 17.3% and the “Max Change MBP” value is -30 +/-13.
